From paper PMC12087874, “Biaryl Phosphates and Phosphonates as Selective Inhibitors of the Transcription Factor STAT4” (Angewandte Chemie (International Ed. in English), 2025)

Assays:
Assay type in all cases: binding
STAT3 = STAT3 (Homo sapiens, UniProt P40763); assay: Competitive fluorescence polarization (FP) assay, STAT3 SH2 domain; details: for IC50: mean ± SD, n = 3; for Ki: tracer 5-carboxyfluorescein-GpYLPQTV-NH2, Ki derived from IC50
Protocol: (§1) Fluorescence polarization assays
(§2) Competitive fluorescence polarization assays, which measure the abilities of test compounds (dissolved in DMSO) to displace a fluorescent-labeled peptide from the SH2 domain of a STAT protein, were carried out essentially as described. Proteins were used at the following final concentrations: 23 nM or 28 nM for STAT4; between 56 nM and 91 nM for STAT1; 107 nM or 110 nM for STAT3; between 131 nM and 177 nM for STAT5a; between 62 nM and 85 nM for STAT5b; and 101 nM or 106 nM for STAT6. These concentrations represent the approximate […]
(§3) dissociation constant for peptide binding of the respective protein batches used in the assays.
(§4) The following peptides were used: 5-carboxyfluorescein-GpYLPQNID-OH for STAT4; 5-carboxyfluorescein-GpYDKPHVL for STAT1; 5-carboxyfluorescein-GpYLPQTV-NH2 for STAT3; 5-carboxyfluorescein-GpYLVLDKW for STAT5a/b, and 5-carboxyfluorescein- […]
(§5) Gp[…]-OH for STAT6. All peptides were used at a final concentration of 10 nM. The buffer consisted of 10 mM Tris (pH 8.0), 50 mM NaCl, 1 mM EDTA, 1 mM DTT, 0 .1 % Nonidet P-40 substitute, and 2 % DMSO. After incubation of protein and test compound for 1 h at room temperature, the fluorescent -labeled peptide was added. Samples were transferred to 384 - well microtiter plates and fluorescence polarization was read after an additional 60 min of incubation time. Measurements were performed in triplicate. Percent binding was calculated based on a logarithmic curve fit using OriginPro 8G software. IC 50 values were converted to Ki-values via the published equation[3] using the corresponding Excel spread sheet […]
(§6) https://websites.umich.edu/~shaomengwanglab/software/calc_ki/index.html .
(§7) Error bars represent standard deviations. Ligand efficiencies (LE) were calculated by the formula LE = -1,37 x log Ki / number of non-hydrogen atoms.[4] […]

STAT5b = target: T1, STAT5b (Homo sapiens, UniProt P51692); assay: Competitive fluorescence polarization (FP) assay, STAT5b SH2 domain; details: for Ki: Ki derived from IC50; for IC50: mean ± SD, n = 3
T1 sequence (P51692 1-787): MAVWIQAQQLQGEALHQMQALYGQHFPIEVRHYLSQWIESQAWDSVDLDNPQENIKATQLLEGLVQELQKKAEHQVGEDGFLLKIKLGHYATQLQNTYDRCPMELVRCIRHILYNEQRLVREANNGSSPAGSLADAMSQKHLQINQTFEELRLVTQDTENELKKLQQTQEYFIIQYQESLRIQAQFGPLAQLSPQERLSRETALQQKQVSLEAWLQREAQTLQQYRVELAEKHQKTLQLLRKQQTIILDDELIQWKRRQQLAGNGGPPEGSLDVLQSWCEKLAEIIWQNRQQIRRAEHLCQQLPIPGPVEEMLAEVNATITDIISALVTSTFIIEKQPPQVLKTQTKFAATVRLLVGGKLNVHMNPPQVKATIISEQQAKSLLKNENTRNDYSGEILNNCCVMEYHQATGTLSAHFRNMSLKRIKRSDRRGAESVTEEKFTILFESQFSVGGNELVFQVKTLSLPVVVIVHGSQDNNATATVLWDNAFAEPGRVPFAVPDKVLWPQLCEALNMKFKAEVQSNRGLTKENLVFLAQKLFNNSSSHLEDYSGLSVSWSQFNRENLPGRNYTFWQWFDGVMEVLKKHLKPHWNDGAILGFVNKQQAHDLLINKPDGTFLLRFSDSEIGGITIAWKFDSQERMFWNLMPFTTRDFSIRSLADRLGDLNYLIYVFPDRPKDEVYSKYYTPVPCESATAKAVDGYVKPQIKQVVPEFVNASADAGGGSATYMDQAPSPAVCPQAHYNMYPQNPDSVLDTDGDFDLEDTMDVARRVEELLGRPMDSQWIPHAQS
Protocol: as §1, §2, §3, §4, §5, §6, §7

STAT4 = target: T2, STAT4 (Homo sapiens, UniProt Q14765); assay: Competitive fluorescence polarization (FP) assay, STAT4 SH2 domain; details: for Ki / IC50: FP assay, mean ± SD, n = 3; for Ki: tracer 5-carboxyfluorescein-GpYLPQNID-OH, Ki derived from IC50, read-out: STAT4 K i
T2 sequence (Q14765 1-748): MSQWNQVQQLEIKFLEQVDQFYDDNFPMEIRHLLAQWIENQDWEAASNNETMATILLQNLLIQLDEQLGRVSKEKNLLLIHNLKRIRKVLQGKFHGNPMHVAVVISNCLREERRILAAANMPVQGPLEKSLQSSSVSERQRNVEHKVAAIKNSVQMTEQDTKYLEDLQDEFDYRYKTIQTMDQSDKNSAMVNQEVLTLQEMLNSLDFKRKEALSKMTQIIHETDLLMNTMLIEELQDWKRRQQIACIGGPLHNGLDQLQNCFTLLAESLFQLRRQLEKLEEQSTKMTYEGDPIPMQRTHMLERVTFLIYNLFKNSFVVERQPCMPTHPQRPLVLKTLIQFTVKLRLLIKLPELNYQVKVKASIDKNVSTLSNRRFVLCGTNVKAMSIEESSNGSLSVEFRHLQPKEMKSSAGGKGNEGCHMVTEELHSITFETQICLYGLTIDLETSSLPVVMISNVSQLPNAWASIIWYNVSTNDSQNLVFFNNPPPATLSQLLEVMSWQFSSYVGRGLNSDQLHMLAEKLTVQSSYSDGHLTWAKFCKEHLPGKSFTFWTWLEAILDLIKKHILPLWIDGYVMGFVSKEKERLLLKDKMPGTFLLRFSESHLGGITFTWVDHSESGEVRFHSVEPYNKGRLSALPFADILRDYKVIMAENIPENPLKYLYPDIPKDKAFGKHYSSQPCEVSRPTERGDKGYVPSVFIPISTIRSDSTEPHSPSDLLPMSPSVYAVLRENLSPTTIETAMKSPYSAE
Protocol: as §1, §2, §3, §4, §5, §6, §7

Sequence of STAT3 (P40763 whole entry, species assumed, the tested form may be a part): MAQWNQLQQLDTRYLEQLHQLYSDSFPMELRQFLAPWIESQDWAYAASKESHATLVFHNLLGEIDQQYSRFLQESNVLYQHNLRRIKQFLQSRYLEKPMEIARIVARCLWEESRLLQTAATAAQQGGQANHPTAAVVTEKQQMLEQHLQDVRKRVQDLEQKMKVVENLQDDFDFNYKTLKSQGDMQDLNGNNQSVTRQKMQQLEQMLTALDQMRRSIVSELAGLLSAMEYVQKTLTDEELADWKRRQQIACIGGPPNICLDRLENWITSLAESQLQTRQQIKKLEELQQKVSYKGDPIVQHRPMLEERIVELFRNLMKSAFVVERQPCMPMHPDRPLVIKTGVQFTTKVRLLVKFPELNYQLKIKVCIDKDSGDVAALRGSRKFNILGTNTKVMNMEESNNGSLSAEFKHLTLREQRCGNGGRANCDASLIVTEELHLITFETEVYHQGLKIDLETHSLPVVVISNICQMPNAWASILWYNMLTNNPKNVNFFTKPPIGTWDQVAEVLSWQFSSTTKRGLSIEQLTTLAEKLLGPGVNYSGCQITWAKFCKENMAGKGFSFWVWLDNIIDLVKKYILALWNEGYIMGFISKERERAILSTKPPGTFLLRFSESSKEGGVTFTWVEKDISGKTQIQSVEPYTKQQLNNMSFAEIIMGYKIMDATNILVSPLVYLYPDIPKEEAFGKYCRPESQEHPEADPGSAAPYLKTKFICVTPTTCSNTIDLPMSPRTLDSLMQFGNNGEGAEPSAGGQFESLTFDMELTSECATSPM

ligand efficiency (STAT4; LE = -1,37 x log Ki / number of non-hydrogen atoms, STAT4 Ki) | Structure (SMILES) | IC50 (STAT3) | Ki (STAT3) | Ki (STAT5b) | IC50 (STAT5b) | Ki (STAT4) | IC50 (STAT4) | selectivity for STAT4 over the SH2 domain of STAT5a (STAT4; FP assays, Ki ratio) | selectivity for STAT4 over the SH2 domain of STAT5b (STAT4; FP assays, Ki ratio) | selectivity for STAT4 over the SH2 domains of STAT1, STAT3, and STAT6 (STAT4; FP assays, Ki ratio) | selectivity for STAT4 over other STAT proteins (STAT4; FP assays)
 | O=P(O)(O)Oc1ccc(-c2ccccc2)cc1 [Compound 1, para‐biphenyl phosphate] | 18 ± 3 µM | 8.4 ± 1 µM | 47 ± 3 µM | 95 ± 6 µM | 1.1 ± 0.1 µM | 2.3 ± 0.2 µM | ~20 fold | ~40 fold | 7–8 fold | 
 | O=P(O)(O)Oc1ccc(-c2ccc3ccccc3c2)cc1 [Compound 6g] | 37 ± 2 µM | 18 ± 1 µM | 53 ± 5 µM | 109 ± 11 µM | 0.44 ± 0.09 µM | 0.95 ± 0.19 µM |  |  |  | 
 | O=P(O)(O)Oc1ccc(-c2ccccc2)cc1F [Compound 6h] | 9.1 ± 0.6 µM | 4.5 ± 0.3 µM | 45 ± 7 µM | 91 ± 14 µM | 0.56 ± 0.08 µM | 1.2 ± 0.2 µM |  |  |  | 
 | O=P(O)(O)Oc1ccc(-c2ccc3ccccc3c2)cc1F [Compound 6m] | 10 ± 1 µM | 5 ± 0.5 µM | 26 ± 2 µM | 52 ± 4 µM | 0.35 ± 0.01 µM | 0.76 ± 0.01 µM |  |  |  | 10–70 fold
 | O=P(O)(O)C(F)(F)c1ccc(-c2ccc3ccccc3c2)cc1F [Compound 8a] | 44 ± 2 µM | 22 ± 1 µM | 39 ± 1 µM | 79 ± 3 µM | 4 ± 0.5 µM | 8.5 ± 1 µM |  |  |  | 
0.39 kcal/mol | Cc1cc(-c2ccc(C(F)(F)P(=O)(O)O)c(F)c2)cs1 [Compound 8k] | 31 ± 4 µM | 15 ± 2 µM | 64 ± 7 µM | 130 ± 14 µM | 1.7 ± 0.2 µM | 3.7 ± 0.4 µM |  |  |  | 
